Tests used:
[1] = cited from earlier work
Caco-2 cells [2] = conditions: cited from earlier work
Caco-2 cells [3] = conditions: 10 μM, 2 h

| membrane permeability in the apical to basolateral (A→B) direction, in words (Caco-2 cells [3]) | Structure (SMILES) | other results |
| --- | --- | --- |
| – | Nc1ccccn1 [2-aminopyridine] | pKa [1]: 7.1 |
| – | Cl.Cl.N=C(Nc1cccc(CNCCc2cccc(F)c2)c1)c1cccs1 [Compound 3] | Caco-2 permeability, in words (Caco-2 cells [2]): poor |
| good | Cl.Cl.Nc1ccc2ccc(CCNCCc3cccc(F)c3)cc2n1 [Compound 7, 7-[(3-Fluorophenethylamino)ethyl]quinolin-2-amine Dihydrochloride] | – |
| good | Cl.Cl.Cl.Nc1ccc2ccc(CCNCCc3cccc(Cl)c3)cc2n1 [Compound 15, 7-[(3-Chlorophenethylamino)ethyl]quinolin-2-amine Dihydrochloride] | – |

From PMC3954451 (Journal of Medicinal Chemistry, 2014)
